The values below come from US9199946B2, “Pyrimidinone carboxamide inhibitors of endothelial lipase” (BRISTOL-MYERS SQUIBB COMPANY, priority 2012, dated 2015).

The target of this assay is T1, Endothelial lipase (EL) (Homo sapiens, UniProt Q9Y5X9).
T1 construct: HT-1080 cells, which were transformed by RAGE technology (Athersys) to overexpress endogenous EL; endogenous in cells; conditioned medium used as the enzyme source
T1 sequence (Q9Y5X9 21-500): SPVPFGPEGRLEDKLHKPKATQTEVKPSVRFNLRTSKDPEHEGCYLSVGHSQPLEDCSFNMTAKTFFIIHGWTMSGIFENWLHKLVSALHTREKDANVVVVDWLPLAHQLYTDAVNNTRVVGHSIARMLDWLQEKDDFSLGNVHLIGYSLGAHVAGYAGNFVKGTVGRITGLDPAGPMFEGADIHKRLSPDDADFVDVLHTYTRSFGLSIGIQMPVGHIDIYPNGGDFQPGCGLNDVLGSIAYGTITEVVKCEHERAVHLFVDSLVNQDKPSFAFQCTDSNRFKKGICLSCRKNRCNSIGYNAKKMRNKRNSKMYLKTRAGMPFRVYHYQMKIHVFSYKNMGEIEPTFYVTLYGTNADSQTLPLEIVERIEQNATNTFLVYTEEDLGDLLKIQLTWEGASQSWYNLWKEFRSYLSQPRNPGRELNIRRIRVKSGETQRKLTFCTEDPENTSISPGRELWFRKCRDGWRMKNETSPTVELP
The assay is described as follows: Endothelial lipase (EL) enzymatic assay with fluorescent substrate A10070 in DMPG vesicles. It is filed as biochemical. The method, boiled down:
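EL activity was followed as a fluorescence rate (488/530 nm, reads every 20 s for 10 min, linear slope) on A10070 doped at 0.05 mole fraction into sonicated DMPG vesicles. Compound was first incubated 20 min at 37 °C, pH 8.0 HEPES/CaCl2 buffer, with conditioned media from EL-overexpressing HT-1080 cells.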

Setting [1] is: range observed in the EL assay, read-out: EL IC50 values.
[2] abbreviates: conditioned media from HT-1080 cells overexpressing endogenous EL, 20 min preincubation at 37° C., read-out: EL IC50.

Read-outs that look alike come from different tables or passages of the source.

For the compound `O=C(N[C@H]1CC[C@@H](C(=O)N[C@@H]2CCCc3c(OCc4ccccc4)cccc32)C1)c1[nH]c(=O)[nH]c(=O)c1O` [Example 263, N-((1S,3R)-3-((R)-5-(benzyloxy)-1,2,3,4-tetrahydronaphthalen-1-ylcarbamoyl)cyclopentyl)-5-hydroxy-2,6-dioxo-1,2,3,6-tetrahydropyrimidine-4-carboxamide], the IC50 (commonly the concentration that inhibits the measured activity by half) under setting [1] is ≤ 10 µM.
`COc1ccc2c(c1)C(NC(=O)c1[nH]c(=O)[nH]c(=O)c1N)CC2` (single isomer, unassigned) [Example 72, 5-amino-N-(6-methoxy-2,3-dihydro-1H-inden-1-yl)-2,6-dioxo-1,2,3,6-tetrahydropyrimidine-4-carboxamide]: the half-maximal inhibitory concentration (IC50) under setting [2] is 22.2 µM.
As to `Cc1ccc(S(=O)(=O)Nc2ccc(C3CCCC(NC(=O)c4[nH]c(=O)[nH]c(=O)c4N)C3)cc2)cc1` (stereo not drawn) [Example 128, 5-amino-N-(3-(4-(4-methylphenylsulfonamido)phenyl)cyclohexyl)-2,6-dioxo-1,2,3,6-tetrahydropyrimidine-4-carboxamide], the IC50 under setting [2] is 0.013 µM and the IC50 under setting [1] was ≤ 10 µM.
Regarding `O=C(N[C@@H]1CC[C@H](c2ccccc2)C1)c1[nH]c(=O)[nH]c(=O)c1O` [Example 271, 5-Hydroxy-2,6-dioxo-N-((1R,3S)-3-phenylcyclopentyl)-1,2,3,6-tetrahydropyrimidine-4-carboxamide], the half-maximal inhibitory concentration (IC50) under setting [1] is ≤ 10 µM.
As to `CC(C)Oc1ccc(C2CCC(NC(=O)c3[nH]c(=O)[nH]c(=O)c3N)C2)cc1` (stereo not drawn) [Example 142, 5-amino-N-(3-(4-isopropoxyphenyl)cyclopentyl)-2,6-dioxo-1,2,3,6-tetrahydropyrimidine-4 carboxamide], the IC50 was 0.039 µM under setting [2] and ≤ 10 µM under setting [1].
The matching figures for `CS(=O)(=O)N1CCC(NC(=O)c2[nH]c(=O)[nH]c(=O)c2N)c2ccccc21` (stereo not drawn) [Example 24, 5-amino-N-(1-(methylsulfonyl)-1,2,3,4-tetrahydroquinolin-4-yl)-2,6-dioxo-1,2,3,6-tetrahydropyrimidine-4-carboxamide]: 0.568 µM and ≤ 10 µM.
With `CC(C)CNc1c(C(=O)N[C@H]2CC[C@@H](c3ccccc3)CC2)[nH]c(=O)[nH]c1=O` [Example 206, 5-(isobutylamino)-2,6-dioxo-N-(cis-4-phenylcyclohexyl)-1,2,3,6-tetrahydropyrimidine-4-carboxamide], the concentration for half-maximal inhibition (IC50) under setting [1] is ≤ 10 µM.
`O=C(N[C@@H]1CCCc2c(OCC(F)(F)F)cccc21)c1[nH]c(=O)[nH]c(=O)c1O` [Example 255, (R)-5-hydroxy-2,6-dioxo-N-(5-(2,2,2-trifluoroethoxy)-1,2,3,4-tetrahydronaphthalen-1-yl)-1,2,3,6-tetrahydropyrimidine-4-carboxamide]: the half-inhibitory concentration (IC50) under setting [1] is ≤ 10 µM.
On to `COc1ccc2c(c1)C(NC(=O)c1[nH]c(=O)[nH]c(=O)c1N)CC2` (stereo not drawn) [Example 11, 5-amino-N-(6-methoxy-2,3-dihydro-1H-inden-1-yl)-2,6-dioxo-1,2,3,6-tetrahydropyrimidine-4-carboxamide], for which the IC50 under setting [1] was ≤ 10 µM.
Same read-out and setting: the figure for `Nc1c(C(=O)N[C@H]2CC[C@@H](c3ccc(-c4ccccc4)cc3)C2)[nH]c(=O)[nH]c1=O` [Example 167, 5-amino-N-((1S,3R)-3-(biphenyl-4-yl)cyclopentyl)-2,6-dioxo-1,2,3,6-tetrahydropyrimidine-4-carboxamide] is ≤ 10 µM.
Same read-out and setting: the figure for `Nc1c(C(=O)N[C@@H]2CCc3c(Cl)cc(Cl)cc32)[nH]c(=O)[nH]c1=O` [Example 5, (R)-5-amino-N-(4,6-dichloro-2,3-dihydro-1H-inden-1-yl)-2,6-dioxo-1,2,3,6-tetrahydropyrimidine-4-carboxamide] is ≤ 10 µM; for `O=C(N[C@@H]1CC[C@H](c2ccccc2)c2ccccc21)c1[nH]c(=O)[nH]c(=O)c1O` [Example 250, 5-hydroxy-2,6-dioxo-N-((1R,4R)-4-phenyl-1,2,3,4-tetrahydronaphthalen-1-yl)-1,2,3,6-tetrahydropyrimidine-4-carboxamide] it is ≤ 10 µM.
For the compound `Cc1nc(-c2ccccc2)sc1-c1ccc([C@@H]2CC[C@H](NC(=O)c3[nH]c(=O)[nH]c(=O)c3N)C2)cc1` (stereo in doubt) [Example 171, 5-amino-N-((1S,3R)-3-(4-(4-methyl-2-phenylthiazol-5-yl)phenyl)cyclopentyl)-2,6-dioxo-1,2,3,6-tetrahydropyrimidine-4-carboxamide], the half-inhibitory concentration (IC50) by setting is: under setting [2], 1.48 µM; under setting [1], ≤ 10 µM.
As for `COc1ccccc1C1CCC(NC(=O)c2[nH]c(=O)[nH]c(=O)c2O)C1` (stereo not drawn) [Example 292, 5-hydroxy-N-(3-(2-methoxyphenyl)cyclopentyl)-2,6-dioxo-1,2,3,6-tetrahydropyrimidine-4 carboxamide], under setting [1], the 50% inhibitory concentration (IC50) is ≤ 10 µM.
Still for that read-out and setting: the figure for `O=C(N[C@H]1CC[C@@H](c2ccccc2)CC1)c1[nH]c(=O)[nH]c(=O)c1NCc1cccc(C(F)(F)F)c1` [Example 222, 2,6-dioxo-N-(cis-4-phenylcyclohexyl)-5-(3-(trifluoromethyl)benzylamino)-1,2,3,6-tetrahydropyrimidine-4-carboxamide] is ≤ 10 µM.
Take `Nc1c(C(=O)NC2CC=C(c3ccc(F)c(F)c3)CC2)[nH]c(=O)[nH]c1=O` (stereo not drawn) [Example 202, 5-Amino-N-(4-(3,4-difluorophenyl)cyclohex-3-enyl)-2,6-dioxo-1,2,3,6-tetrahydropyrimidine-4-carboxamide]: the IC50 was 1.91 µM under setting [2] and ≤ 10 µM under setting [1].
Regarding `COc1ccc(-c2ccc([C@@H]3CC[C@H](NC(=O)c4[nH]c(=O)[nH]c(=O)c4N)C3)cc2)cc1OC` [Example 161, 5-amino-N-((1S,3R)-3-(3′,4′-dimethoxybiphenyl-4-yl)cyclopentyl)-2,6-dioxo-1,2,3,6-tetrahydropyrimidine-4-carboxamide], the IC50 under setting [1] was ≤ 10 µM.
Still for that read-out and setting: the figure for `Nc1c(C(=O)N[C@@H]2CCC[C@H]2OCc2ccccc2)[nH]c(=O)[nH]c1=O` [Example 63, 5-amino-N-((1R,2R)-2-(benzyloxy)cyclopentyl)-2,6-dioxo-1,2,3,6-tetrahydropyrimidine-4-carboxamide] is ≤ 10 µM; for `COc1ccc(-c2ccc([C@@H]3CC[C@H](NC(=O)c4[nH]c(=O)[nH]c(=O)c4N)C3)cc2)cc1` [Example 168, 5-amino-N-((1S,3R)-3-(4′-methoxybiphenyl-4-yl)cyclopentyl)-2,6-dioxo-1,2,3,6-tetrahydropyrimidine-4-carboxamide] it is ≤ 10 µM; for `Nc1c(C(=O)N[C@@H]2CCc3cc(Oc4ccccc4)ccc32)[nH]c(=O)[nH]c1=O` [Example 89, (R)-5-amino-2,6-dioxo-N-(5-phenoxy-2,3-dihydro-1H-inden-1-yl)-1,2,3,6-tetrahydropyrimidine-4-carboxamide] it is ≤ 10 µM.
The same measure, in the same setting: then `Cc1cc(Cl)nc(N2CCCC(NC(=O)c3[nH]c(=O)[nH]c(=O)c3N)C2)n1` (stereo not drawn) [Example 185, 5-amino-N-(1-(4-chloro-6-methylpyrimidin-2-yl)piperidin-3-yl)-2,6-dioxo-1,2,3,6-tetrahydropyrimidine-4-carboxamide], with ≤ 10 µM.
Turning to `COc1ccc2c(c1)C(NC(=O)c1[nH]c(=O)[nH]c(=O)c1N)CC2` (single isomer, unassigned) [Example 73, 5-amino-N-(6-methoxy-2,3-dihydro-1H-inden-1-yl)-2,6-dioxo-1,2,3,6-tetrahydropyrimidine-4-carboxamide], the half-maximal inhibitory concentration (IC50) runs as follows: under setting [2], 0.468 µM; under setting [1], ≤ 10 µM.
Consider `CC(C)(C)OC(=O)N1CCC(NC(=O)c2[nH]c(=O)[nH]c(=O)c2N)C1` (stereo not drawn) [Example 62, tert-butyl 3-(5-amino-2,6-dioxo-1,2,3,6-tetrahydropyrimidine-4-carboxamido)pyrrolidine-1-carboxylate], for which, under setting [1], the half-maximal inhibitory concentration (IC50) is ≤ 10 µM.
Still for that read-out and setting: then `O=C(N[C@@H]1CCCc2ccccc21)c1[nH]c(=O)[nH]c(=O)c1O` [Example 276, (R)-5-hydroxy-2,6-dioxo-N-(1,2,3,4-tetrahydronaphthalen-1-yl)-1,2,3,6-tetrahydropyrimidine-4-carboxamide], with ≤ 10 µM; and `CN1CCC(Nc2c(C(=O)N[C@H]3CC[C@@H](c4ccccc4)CC3)[nH]c(=O)[nH]c2=O)CC1` [Example 230, 5-(1-methylpiperidin-4-ylamino)-2,6-dioxo-N-(cis-4-phenylcyclohexyl)-1,2,3,6-tetrahydropyrimidine-4-carboxamide], with ≤ 10 µM; and `O=C(N[C@H]1CC[C@@H](c2ccccc2)CC1)c1[nH]c(=O)[nH]c(=O)c1NCc1cc(F)cc(C(F)(F)F)c1` [Example 236, 5-(3-fluoro-5-(trifluoromethyl)benzylamino)-2,6-dioxo-N-((1s,4s)-4-phenylcyclohexyl)-1,2,3,6-tetrahydropyrimidine-4-carboxamide], with ≤ 10 µM.
For the compound `Nc1c(C(=O)N[C@H]2CCCc3c2cccc3C(F)(F)F)[nH]c(=O)[nH]c1=O` [Example 50, (S)-5-amino-2,6-dioxo-N-(5-(trifluoromethyl)-1,2,3,4-tetrahydronaphthalen-1-yl)-1,2,3,6-tetrahydropyrimidine-4-carboxamide], the IC50 under setting [1] was ≤ 10 µM.
